The source of these data is PMC3878827, “Synthesis and biological characterisation of ^18F-SIG343 and ^18F-SIG353, novel and high selectivity σ2 radiotracers, for tumour imaging properties” (EJNMMI Research, 2013).

The IC50 is the concentration at which inhibition is half-maximal. As a reminder, the Ki is a dissociation constant, usually derived from enzyme kinetics or from competition with a known ligand. By chromatographic logP is commonly meant lipophilicity estimated from chromatographic retention. A lower chromatographic logP goes with lower lipophilicity.

Bounds are passed on as bounds.

The conditions of data set [1]: rats, intravenous bolus; cited from earlier work.
The target in data set [2] is Dopamine, non-selective. The experiment in a line: Cross activity at neuroreceptors (Caliper LifeSciences): dopamine. It is filed as binding. The conditions noted are these: determined by Caliper LifeSciences; read-out: Affinity Dopamine, non-selective (IC50). The method, then:
(§1) The test compounds were solubilised in DMSO and diluted in 50 mmol/L Tris-HCl (pH 8.0). Membrane homogenates were prepared from male Sprague-Dawley rat brains as previously described. The binding of σ ligands to σ1 and σ2 receptors was determined according to literature methods with minor modification. Briefly, the percentage of inhibition was determined by incubating, in triplicate, aliquots of diluted rat brain membrane (300 μg of protein) with 10^-11 to 10^-5 mol/L concentrations of the studied drugs in 50 mmol/L Tris-HCl (pH 8.0) with ^3H-(+)-pentazocine (3 nmol/L) at 37°C for 2.5 h for σ1 receptors or with ^3H-DTG (10 nmol/L) and (+)-pentazocine (1 μmol/L) at 25°C for 1.5 h for σ2 receptors. […] After incubation, the reaction was terminated by rapid filtration using a Brandel 48-well cell harvester (Brandel, Gaithersburg, MD, USA) over Whatman GF/B glass fibre filters that were soaked in a solution of 0.5% polyethyleneimine at 4°C for at least 2 h before use. […] The filters were collected and the amount of bound radioactivity was measured using a β-scintillation counter (Tri-Carb 2100TR, Packard Instrument Co., Downers Grove, IL, USA). The percentage inhibition of the studied drugs, at concentrations of 10^-5 and 10^-7 mol/L, was also determined for the cross activity at a number of other neuroreceptors (Caliper LifeSciences, MA, USA). […]

Data set [3] concerns the target Serotonin, non-selective. Briefly: Cross activity at neuroreceptors (Caliper LifeSciences): serotonin. It is filed as binding. The conditions noted are these: determined by Caliper LifeSciences; read-out: Affinity Serotonin, non-selective (IC50). The method, then: as §1
Data set [4] concerns the target T1, CB1, non-selective (Homo sapiens, UniProt P21554).
T1 construct: Caliper LifeSciences
Briefly: Cross activity at neuroreceptors (Caliper LifeSciences): CB1. It is filed as binding. The conditions noted are these: determined by Caliper LifeSciences; read-out: Affinity CB1, non-selective (IC50). On the procedure: as §1

The target in data set [5] is Muscarinic, non-selective. The experiment in a line: Cross activity at neuroreceptors (Caliper LifeSciences): muscarinic. It is filed as binding. The conditions noted are these: determined by Caliper LifeSciences; read-out: Affinity Muscarinic, non-selective (IC50). The method, then: as §1
The target of data set [6] is Opioid, non-selective. Briefly: Cross activity at neuroreceptors (Caliper LifeSciences): opioid. The conditions noted are these: determined by Caliper LifeSciences; read-out: Affinity Opioid, non-selective (IC50). It is filed as binding. The method, then:
as §1

For data set [7], the target named is T2, σ1 receptors (Rattus norvegicus, UniProt Q9R0C9).
T2 construct: aliquots of diluted rat brain membrane (300 μg of protein); from tissue; host or cells: male Sprague-Dawley rat brain membrane homogenate
Briefly: Radioreceptor binding assay, σ1 (3H-(+)-pentazocine, rat brain membrane). The conditions noted are these: determined by ANSTO LifeSciences, read-out: Affinity σ1 (Ki). The method, then:
as §1

Data set [8] is described as follows: Lipophilicity by RP-HPLC (logP7.5). It is filed as physicochemical. The conditions noted are these: logP7.5, phosphate buffer pH 7.5. On the procedure:
The lipophilicity of SIG343 and SIG353 were assessed using RP-HPLC by determining the logP7.5 value using literature procedures.

In data set [9] the target is T3, σ2 receptors (Rattus norvegicus, UniProt Q5U3Y7).
T3 sequence (Q5U3Y7 1-176): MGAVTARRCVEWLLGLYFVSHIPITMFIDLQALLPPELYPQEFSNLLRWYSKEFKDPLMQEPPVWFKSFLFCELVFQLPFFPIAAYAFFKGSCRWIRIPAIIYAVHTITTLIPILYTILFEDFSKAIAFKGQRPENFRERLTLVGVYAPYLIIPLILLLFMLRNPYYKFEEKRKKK
Briefly: Radioreceptor binding assay, σ2 (3H-DTG + (+)-pentazocine, rat brain membrane). The conditions noted are these: for Ki: rat brain membrane, 3H-DTG with (+)-pentazocine, determined by ANSTO LifeSciences, read-out: Affinity σ2 (Ki); for Selectivity σ2:σ1: ratio of Ki values, Table 2. On the procedure:
The test compounds were solubilised in DMSO and diluted in 50 mmol/L Tris-HCl (pH 8.0). Membrane homogenates were prepared from male Sprague-Dawley rat brains as previously described. The binding of σ ligands to σ1 and σ2 receptors was determined according to literature methods with minor modification. Briefly, the percentage of inhibition was determined by incubating, in triplicate, aliquots of diluted rat brain membrane (300 μg of protein) with 10^-11 to 10^-5 mol/L concentrations of the studied drugs in 50 mmol/L Tris-HCl (pH 8.0) with ^3H-(+)-pentazocine (3 nmol/L) at 37°C for 2.5 h for σ1 receptors or with ^3H-DTG (10 nmol/L) and (+)-pentazocine (1 μmol/L) at 25°C for 1.5 h for σ2 receptors. […] After incubation, the reaction was terminated by rapid filtration using a Brandel 48-well cell harvester (Brandel, Gaithersburg, MD, USA) over Whatman GF/B glass fibre filters that were soaked in a solution of 0.5% polyethyleneimine at 4°C for at least 2 h before use. Filters were washed three times with 5 mL of ice-cold wash buffer (50 mmol/L Tris HCl, pH 7.4). The filters were collected and the amount of bound radioactivity was measured using a β-scintillation counter (Tri-Carb 2100TR, Packard Instrument Co., Downers Grove, IL, USA). The percentage inhibition of the studied drugs, at concentrations of 10^-5 and 10^-7 mol/L, was also determined for the cross activity at a number of other neuroreceptors (Caliper LifeSciences, MA, USA). The IC50 values were then converted to apparent Ki values using the Cheng-Prusoff equation and radioligand Kd values.

T1 sequence (P21554 whole entry): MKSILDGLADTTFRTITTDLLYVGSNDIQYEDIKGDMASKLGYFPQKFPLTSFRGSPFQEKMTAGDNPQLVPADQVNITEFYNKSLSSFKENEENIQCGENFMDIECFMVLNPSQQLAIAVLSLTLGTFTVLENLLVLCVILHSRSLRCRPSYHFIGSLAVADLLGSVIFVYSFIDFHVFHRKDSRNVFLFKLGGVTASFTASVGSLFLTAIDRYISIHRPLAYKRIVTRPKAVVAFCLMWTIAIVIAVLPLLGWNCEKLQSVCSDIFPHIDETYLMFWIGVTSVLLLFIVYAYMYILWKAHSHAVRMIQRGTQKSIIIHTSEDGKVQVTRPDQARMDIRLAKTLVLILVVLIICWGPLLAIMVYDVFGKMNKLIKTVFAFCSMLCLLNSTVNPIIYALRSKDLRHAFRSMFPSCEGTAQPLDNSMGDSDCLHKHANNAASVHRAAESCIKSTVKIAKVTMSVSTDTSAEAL
T2 sequence (Q9R0C9 whole entry): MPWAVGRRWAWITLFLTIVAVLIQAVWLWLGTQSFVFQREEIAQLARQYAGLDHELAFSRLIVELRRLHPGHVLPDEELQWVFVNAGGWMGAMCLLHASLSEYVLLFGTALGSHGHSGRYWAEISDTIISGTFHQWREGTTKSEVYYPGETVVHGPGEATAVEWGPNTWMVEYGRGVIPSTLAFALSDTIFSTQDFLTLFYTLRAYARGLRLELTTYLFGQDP

On to `O=C(CCCN1CCC(O)(c2ccc(Cl)cc2)CC1)c1ccc(F)cc1` [haloperidol], for which the Terminal half-life in data set [1] is reported as 1.5 h.
As for `COc1cc2c(cc1OC)CN(CCCCN1C(=O)c3ccc(F)cc3C1=O)CC2` [SIG343, 2-(4-(6,7-Dimethoxy-3,4-dihydroisoquinolin-2(1H)-yl)butyl)-5-fluoroisoindoline-1,3-dione], the IC50 in [2], in data set [3], in data set [4], in [5] and in [6] was over 10 µM throughout. Further, the values for the Ki in data set [7] and in data set [9] were 1.6 µM and 0.008 µM, respectively. The compound further had a chromatographic logP in data set [8] of 3.11 ± 0.08. Further, the “Selectivity σ2:σ1” value in data set [9] was found to be 200.
For the compound `COc1cc2c(cc1OC)CN(CCCCCN1C(=O)c3ccc(F)cc3C1=O)CC2` [SIG353, 2-(5-(6,7-Dimethoxy-3,4-dihydroisoquinolin-2(1H)-yl)pentyl)-5-fluoroisoindoline-1,3-dione], the IC50 in data set [2], in [3], in [4], in [5] and in data set [6] was over 10 µM each time. Also, the figures for the Ki in data set [7] and in data set [9] were 0.266 µM and 0.0024 µM, respectively. The chromatographic logP in data set [8] is 3.47 ± 0.09. Moreover, the “Selectivity σ2:σ1” value in data set [9] is on record as 110.
